# Experimental data as given in US8183230B2, “Antimicrobial preservatives to achieve multi-dose formulation using beta-cyclodextrins for liquid dosage forms” (priority 2004, dated 2012).
# Entries after “also recorded” stand apart in the source; their conditions may differ. Where two headings read alike, the source gives them in different places.
# Experiments:
# [1] = tested on: Escherichia coli, Pseudomonas aeruginosa, Staphylococcus aureus, Candida albicans, Aspergillus niger; conditions: as indicated by literature; cited from earlier work
# [2] = for IST: Study A, compound of Formula Ia at 10 mgA/mL
# Description: Injection site toleration was measured by inspecting the patient for signs of reaction, including erythema (size); skin thickening (size), pain on palpation and edema. Table VI provides a detailed explanation of the scoring system: a score of 0 (no reaction) to 4 (severe reaction) was given for each characteristic and each injection site daily.
# Compound of Formula Ia formulations were evaluated for injection site toleration (hereinafter “IST”).
# Formulations were tested in groups of 4 dogs comprised of beagles and mongrels. […] Dogs were observed daily for evidence of reaction at the injection site and a score of 0-4 (see Table VI) was given for each of the following parameters: pain on injection, erythema, tissue thickening, pain on palpation and edema. Dogs were observed daily until day 5 (24 hours after the last dose).
# [3] = Stability measurements (accelerated stability); conditions: for ACCEPTABLE STABILITY: 10 mgA/mL compound of Formula Ia
# Description: Stability Measurements. Potential lead formulations were evaluated under various accelerated stability conditions in order to assess potency and purity of compound of Formula Ia, preservative content and SBE-CD content. For example, in one accelerated stability study, potential lead formulations were placed in stability ovens to measure short-term thermal stability. […] Purity and potency assays to measure compound of Formula Ia, as well as antimicrobial preservatives and SBE-CD content, were performed using validated HPLC methodology. SBE-CD was assayed using GTP 5984.
# [4] = tested on: Escherichia coli, Pseudomonas aeruginosa, Staphylococcus aureus, Candida albicans, Aspergillus niger; assay: Hybrid USP/Ph. Eur. antimicrobial effectiveness test (AET); assay type: cell-based; conditions: for AET Results Ph. Eur. Criteria A: Study A, compound of Formula Ia at 10 mgA/mL, cells without ✓ print organism (time point); for USP/Ph. Eur. requirements (initial results of preliminary screen): multidose compound of Formula Ia formulation with SBE-CD; for Ph. Eur. criteria B: leads of Study B
# Description: Preparation of Preserved Formulations. […] Antimicrobial preservatives with optimal activity at a pH outside the nominal formulation value (pH 4.4) were titrated to either 3.5 or 5.0 using 1 N HCl or 1 N NaOH. A stock solution of either 10% or 5% (weight/volume) SBE-CD containing 10 mgA/mL of the compound of Formula Ia citrate was prepared. Preservative was added to the respective formulation on a weight basis.
# Antimicrobial Efficacy Testing. A hybrid USP […]/Ph. Eur. 2000 antimicrobial effectiveness test (AET) was performed, as follows: 20 mL of drug product was individually inoculated with 0.1-0.2 mL of bacterial or fungal culture, per USP/Ph. Eur. compendial requirements. The final concentration of organisms in the test sample was between 1×10^5 and 1×10^6 cfu/mL. At initial 6 hr, 24 hr, 7 day, 14 day, and 28 day time intervals, 1 mL of the inoculated product was transferred into 9 mL of a recovery diluent, that was validated to confirm neutralization of the antimicrobial preservative. One mL of the diluted sample was then transferred to a sterile petri dish and combined with 15-20 mL of an agar broth to culture the organisms. Plates were then incubated for 3 to 5 days, upon which colonies were counted. Initial organism contamination was then calculated based on dilution of the initial sample.
# Generally, the USP test requirements are less stringent than Ph. Eur. requirements, which typically have an immediate bacteriocidal activity requirement. The Ph. Eur. requirements shown in Table III have either a “Criteria A” or “Criteria B” specification depending on the rate of microorganism reduction, with criteria A requiring an increased bacteriocidal rate. In order to meet the combined hybrid assay, the initial inoculum count of microorganisms needed to be reduced by the amounts listed in Table V.
# [5] = pH: 4.4, SBE-CD: 5%, ethanol 15%
# [6] = pH: 4.4, SBE-CD: 10%, content: ethanol 15%, meta-cresol 0.3%, propylene glycol 50%, thimerosal 0.01
# [7] = compound of Formula Ia formulations solubilised with cyclodextrin
# [8] = preserved compound of Formula Ia/SBE-CD formulations
# [9] = pH: 4.2, SBE-CD: 10%, preservative content 0.2%
compound,measurement,setting,value
CCO [Ethanol],USP and Ph. Eur. criteria A or B requirements,[1],met both the USP and either Ph. Eur. criteria A or B requirements
same,IST,[2]; [5],Poor
same,IST,[2]; [6],Poor
same,ACCEPTABLE STABILITY,"[3]; pH 4.4, 5% SBE-CD",✓
same,AET Results Ph. Eur. Criteria A,[4]; [5],a. niger (7 d)
same,AET Results Ph. Eur. Criteria A,[4]; [6],s. aur (6 hr)
same,USP/Ph. Eur. requirements (initial results of preliminary screen),[4],satisfied USP/Ph. Eur. requirements
2-hydroxypropyl-β-cyclodextrin,injection site toleration,[2]; [7],acceptable injection site toleration
C[CH2][Hg][S]c1ccccc1C(=O)[O-].[Na+] [Thimerosal],USP and Ph. Eur. criteria A or B requirements,[1],met both the USP and either Ph. Eur. criteria A or B requirements
same,IST,[2]; [6],Good
same,injection site toleration,[2]; [8],good injection site toleration
same,stability in the formulation (in words),[3],commercially undesirable
same,Stability,"[3]; Study A, pH: 4.4, SBE-CD: 10%, thimerosal 0.01, compound of Formula Ia at 10 mgA/mL",1 wk/70
same,preservative remained in the formulation,[3]; after 1 week at 70° C. storage,30%
same,loss of preservative,"[3]; after 6 weeks, 70° C. storage",complete loss
same,Ph. Eur. criteria B,[4],met criteria B
same,USP/Ph. Eur. requirements (initial results of preliminary screen),[4],satisfied USP/Ph. Eur. requirements
"O=C(O)c1ccccc1 [Benzoic acid, Benzoic Acid]",USP and Ph. Eur. criteria A or B requirements,[1],met both the USP and either Ph. Eur. criteria A or B requirements
same,IST,[2]; [9],Poor
same,pain on injection,[2]; preserved compound of Formula Ia formulation,moderate to severe pain on injection
same,injection site toleration,[2]; [8],poor IST results
same,loss of preservative,[3]; over 12 weeks at 70° C. storage,no detectable loss
same,ACCEPTABLE STABILITY,"[3]; pH 4.2, 10% SBE-CD",✓
same,AET Results Ph. Eur. Criteria A,[4]; [9],"c. alb (7 d); also recorded: s. aur (6, 24 hr)"
same,reducing the microorganisms,[4]; after 7 days,ineffective
same,Ph. Eur. criteria B,[4],met criteria B
Sulfobutylether-βcyclodextrin [SBE-CD],injection site toleration,[2]; [7],acceptable injection site toleration
CC(O)CO (stereo not shown) [Propylene glycol],USP and Ph. Eur. criteria A or B requirements,[1],met both the USP and either Ph. Eur. criteria A or B requirements
same,activity against the fungi,[4],ineffective against the fungi
same,USP/Ph. Eur. requirements (initial results of preliminary screen),[4],satisfied USP/Ph. Eur. requirements
same,activity against bacteria,[4]; with and without SBE-CD,active against bacteria only in the presence of SBE-CD
